A short description of series [1]: Solubility in water and organic solvents. The series is classed as physicochemical. The source says: That is, CHAPS or CHAPSO can be removed by utilizing difference in solubility in organic solvents. CHAPS or CHAPSO is soluble in water, methanol and dimethylsulfoxide but insoluble in other solvents (acetone, acetonitrile, ether, chloroform, 2-methyl-1-propanol, N,N-dimethylformamide, isoamly alcohol, ethanol, hexane, xylene, petroleum ether, benzene, n-heptane, toluene). Utilizing the difference in solubility, CHAPS or CHAPSO can easily be removed.

Another series concerns BALB/C3T3 fibroblasts. In words: Cytotoxicity of dispersants: DNA synthesis activity ([3H]thymidine incorporation) in cultured fibroblasts. In kind it is cell-based, mouse. To be noted: added to medium at 1 x 10⁻⁴ to 1 x 10⁻¹%, culture 19 hours; compared with NOG, SB12, Triton X-100, NP-40. As to the method: Upon culturing BALB/C3T3 fibroblasts in bovine serum-supplemented medium on a 24 well plate, CHAPS, NOG (1-O-n-octyl-β-D-glucopyranoside), SB12 (3-(dodecylmethylammonio)-1-propane sulfonate: sulfobetaine 12), Triton X-100 and NP-40 (Nonidet P-40) were added to the medium at concentrations of 1 x l0⁻⁴ to 1 x 10⁻¹%.
(§1) BALB/C3T3 cells, a kind of fibroblasts established from a mouse fetus were suspended in 3% bovine serum-containing DME medium (DME-3% CS) at a concentration of 2 x 10⁴/ml. One milliliter of the suspension was taken and cultured at 37°C for 5 hours on a 24 well tissue culture dish. Then, the medium was replaced by 1 ml of DME-1% CS followed by culturing at 37°C for 48 hours. A sample (2 to 20 µl) was added thereto, followed by culturing for further 16 hours.
(§2) Then, 10 µl of 2 x 10⁻⁵ M[³H]thymidine (40 µCi/ml) was supplemented. After culturing for 3 hours, radioactivity incorporated into DNA fraction was measured. That is, after the medium was removed, cells were rinsed with 1 ml of PBS (phosphate-buffered saline) once and 3 times with 1 ml of cold 10% TCA (trichloroacetic acid). Then, 1 ml of 0.5 M NaOH was added thereto. After allowing to stand at room temperature for 15 minutes, the mixture was neutralized with 5 M HCl. Scintillator cocktail, 6 ml, was added thereto to measure the radioactivity.
Background: Uptake of a labelled nucleoside into DNA is a usual measure of proliferation.

Series [2] deals with BALB/C3T3 cells. In words: Adsorption of FGF to containers of different kinds, with or without CHAPS (FGF activity after storage). The series is classed as physicochemical, mouse. Particulars: addition of 0.1% CHAPS; FGF 0.5 µg/ml PBS; 4°C for 2 days. The protocol:
(§3) Next, examples of the present invention are shown. DNA synthesis activity or FGF activity of samples was determined by the method shown in Example 1 and expressed by cpm (counts per minute) x 10⁻⁴/well/3h.
as §1
Then, 10 µl of 2 x 10⁻⁵ M[³H]thymidine (40 µCi/ml) was supplemented. After culturing for 3 hours, radioactivity incorporated into DNA fraction was measured. That is, after the medium was removed, cells were rinsed with 1 ml of PBS (phosphate-buffered saline) once and 3 times with 1 ml of cold 10% TCA (trichloroacetic acid). Then, 1 ml of 0.5 M NaOH was added thereto. […] Scintillator cocktail, 6 ml, was added thereto to measure the radioactivity.
Commercially available FGF (fibroblast growth factor) was charged in containers shown in Table 1, respectively, in 0.5 µg/ml PBS; the containers were charged with or without 0.1% CHAPS. After storing at 4°C for 2 days, FGF activity in each container was measured.

The test system of series [3] is BALB/C3T3 cells. In words: Thermal stability of FGF at 50°C with or without CHAPS (FGF activity). The series is classed as physicochemical, mouse. Particulars: FGF 5 µg/ml, 1% CHAPS, 50°C for 1 hour. The protocol: as §3, §1, §2
After commercially available FGF (5 µg/ml) added with 1% CHAPS or added with no CHAPS was allowed to stand at 50°C for 1 hour, stability of FGF was examined. […]

Series [4] in a line: Heparin-5PW HPLC of extract from BPH tissues with or without CHAPS (elution of FGF activity). To be noted: Heparin-5PW HPLC of BPH tissue extract, 0.1% CHAPS versus no CHAPS. The series is classed as physicochemical, human. The source says: An extract from human benign prostatic hypertrophy (BPH) tissues was subjected to Heparin-5PW HPLC without adding any CHAPS thereto.
An extract from BPH tissues was subjected to Heparin-5PW HPLC in the presence of 0.1% CHAPS thereto.

Where [5] appears, read: in other solvents (acetone, acetonitrile, ether, chloroform, 2-methyl-1-propanol, N,N-dimethylformamide, isoamyl alcohol, ethanol, hexane, xylene, petroleum ether, benzene, n-heptane, toluene).
[6] abbreviates: in water, methanol and dimethylsulfoxide.

For `C[C@H](CCC(=O)NCCC[N+](C)(C)CC(O)CS(=O)(=O)[O-])[C@H]1CC[C@H]2[C@@H]3[C@H](O)C[C@@H]4C[C@H](O)CC[C@]4(C)[C@H]3C[C@H](O)[C@]12C` (some centres unmarked) [CHAPSO, 3-(3-cholamidopropyl)dimethylammonio]-2-hydroxy-1-propane sulfonate], the solubility entry is on record as “insoluble” in series [1] (setting [5]) and “soluble” in series [1] (setting [6]).

For the compound `C[C@H](CCC(=O)NCCC[N+](C)(C)CCCS(=O)(=O)[O-])[C@H]1CC[C@H]2[C@@H]3[C@H](O)C[C@@H]4C[C@H](O)CC[C@]4(C)[C@H]3C[C@H](O)[C@]12C` [CHAPS, 3-[(3-cholamidopropyl)dimethylammonio]-1-propane sulfonate], the “cytotoxicity (DNA synthesis activity)” value with BALB/C3T3 fibroblasts was “least cytotoxicity among various surface active agents”. In addition, in the series with BALB/C3T3 cells [2], the “adsorption of FGF onto the containers” value is on record as “effectively prevented”. Further, the “effect on thermal instability of FGF” value in the series with BALB/C3T3 cells [3] is recorded as “stabilizing effect”. In addition, the “adsorption of FGF onto carrier and device during chromatographies” value in series [4] was “prevents adsorption of FGF onto a carrier and device”. Further, the solubility entry in series [1] (setting [5]) is listed as “insoluble”; in series [1] (setting [6]) it was “soluble”.

Source of the values: patent EP0382875A1, “Dispersant for biologically active peptide” (Matuo, Yuhsy, priority 1989, dated 1990).
